Data reported in DBAASP.
In brackets after ≈: the same amount, converted by molar mass.

What was measured:
Test in all cases: ≥ marks a high value that may be exact or a test limit, other limits are often not marked, values filed in µg/mL are converted to µM
[1] = tested on: Streptococcus pyogenes KCTC 3096
[2] = tested on: Salmonella typhimurium KCTC 1926
[3] = tested on: Candida albicans KCTC 7121
[4] = tested on: Escherichia coli KCTC 1682
[5] = tested on: Serratia marcescens KCTC 1299
[6] = tested on: Trichosporon beigelii KCTC 7251
[7] = tested on: Bacillus subtilis KCTC 3068
[8] = tested on: Aspergillus flavus KCTC 7375
[9] = tested on: Fusarium oxysporum KCTC 6084
[10] = tested on: Pseudomonas aeruginosa KCTC 1637
[11] = tested on: Staphylococcus aureus KCTC 1621
[12] = tested on: Proteus mirabilis ATCC 25933
[13] = tested on: Escherichia coli ATCC 25922
[14] = tested on: Enterobacter cloacae HNTCC 53001
[15] = tested on: Pseudomonas aeruginosa ATCC 27853
[16] = tested on: Staphylococcus epidermidis RP62A
[17] = tested on: Enterococcus faecalis ATCC 29212
[18] = tested on: Candida albicans ATCC 90028
[19] = tested on: Klebsiella pneumoniae KK3 9904
[20] = tested on: Staphylococcus aureus NCTC 8325
[21] = tested on: Staphylococcus aureus NCTC 10788
[22] = tested on: Candida albicans NCPF 1467
[23] = tested on: Staphylococcus aureus ATCC 33591
[24] = tested on: Staphylococcus aureus S015
[25] = tested on: Escherichia coli NCTC 10418
[26] = tested on: Nocardia asteroides
[27] = tested on: Serratia marcescens
[28] = tested on: Staphylococcus aureus ATCC 2592
[29] = tested on: Klebsiella pneumoniae
[30] = tested on: Candida albicans ATCC 18804
[31] = tested on: Aggregatibacter actinomycetemcomitans ATCC 29522
[32] = tested on: Enterococcus gallinarum
[33] = tested on: Raoultella terrigena
[34] = tested on: Enterococcus faecalis
[35] = tested on: Pseudomonas aeruginosa
[36] = tested on: Acinetobacter baumannii
[37] = tested on: Staphylococcus aureus ATCC 6538
[38] = tested on: Proteus vulgaris NCTC 4635
[39] = tested on: Pseudomonas aeruginosa ATCC 9027
[40] = tested on: Bacillus subtilis ATCC 9372
[41] = tested on: Escherichia coli ATCC 8739

CC[C@H](C)[C@H](NC(=O)[C@H](CCCCN)NC(=O)[C@H](CCCCN)NC(=O)[C@H](Cc1ccccc1)NC(=O)[C@H](CC(C)C)NC(=O)[C@H](CCCCN)NC(=O)[C@H](Cc1c[nH]c2ccccc12)NC(=O)[C@H](CCCCN)NC(=O)[C@@H]1CCCN1C(=O)[C@H](Cc1ccccc1)NC(=O)[C@H](CCCCN)NC(=O)[C@H](CCCCN)NC(=O)[C@H](C)NC(=O)[C@H](CC(C)C)NC(=O)[C@H](Cc1cnc[nH]1)NC(=O)[C@H](CC(C)C)NC(=O)[C@H](Cc1ccccc1)NC(=O)[C@@H](N)CCCCN)C(N)=O [KFLHLAKKFPKWKLFKKI]
MIC [1]: 3.13 µM (≈ 7.2 µg/mL)
MIC [2]: 1.56 µM (≈ 3.59 µg/mL)
MIC [3]: 12.5 µM (≈ 28.7 µg/mL)
MIC [4]: 3.13 µM (≈ 7.2 µg/mL)
MIC [5]: 3.13 µM (≈ 7.2 µg/mL)
MIC [6]: 12.5 µM (≈ 28.7 µg/mL)
MIC [7]: 0.78 µM (≈ 1.79 µg/mL)
MIC [8]: 25 µM (≈ 57.5 µg/mL)
MIC [9]: 25 µM (≈ 57.5 µg/mL)
MIC [10]: 1.56 µM (≈ 3.59 µg/mL)
MIC [11]: 1.56 µM (≈ 3.59 µg/mL)

CSCC[C@H](NC(=O)[C@@H](NC(=O)[C@H](CCCCN)NC(=O)[C@H](CO)NC(=O)[C@H](C)NC(=O)[C@H](CC(C)C)NC(=O)[C@H](CO)NC(=O)CNC(=O)[C@@H](NC(=O)[C@@H](NC(=O)[C@H](CC(N)=O)NC(=O)[C@H](CCCCN)NC(=O)[C@H](C)NC(=O)[C@H](C)NC(=O)CNC(=O)[C@H](CCCCN)NC(=O)[C@H](CC(C)C)NC(=O)[C@@H](NC(=O)[C@H](CC(=O)O)NC(=O)[C@H](CC(C)C)NC(=O)[C@H](CC(C)C)NC(=O)CN)[C@@H](C)O)C(C)C)C(C)C)C(C)C)C(=O)N[C@@H](CCC(=O)O)C(=O)N[C@@H](CCCCN)C(=O)N[C@@H](CC(C)C)C(N)=O [GLLDTLKGAAKNVVGSLASKVMEKL]
MIC [12]: ≥ 200 µM
MIC [13]: 25 µM (≈ 63.6 µg/mL)
MIC [14]: ≥ 50 µM
MIC [15]: 100 µM (≈ 254 µg/mL)
MIC [16]: ≥ 100 µM
MIC [17]: 200 µM (≈ 508 µg/mL)
MIC [18]: ≥ 200 µM
MIC [19]: ≥ 100 µM
MIC [20]: ≥ 200 µM

CC[C@H](C)[C@H](NC(=O)[C@H](CC(C)C)NC(=O)CNC(=O)[C@@H]1CCCN1C(=O)[C@@H](NC(=O)[C@H](CCSC)NC(=O)CNC(=O)[C@H](CC(C)C)NC(=O)[C@@H](N)Cc1ccccc1)[C@@H](C)CC)C(=O)NCC(=O)NCC(=O)N[C@@H](CC(C)C)C(=O)N[C@H](C(=O)N[C@@H](CO)C(=O)N[C@@H](C)C(=O)N[C@@H](Cc1ccccc1)C(=O)N[C@@H](CCCCN)C(=O)O)[C@@H](C)CC [FLGMIPGLIGGLISAFK]
MIC [21]: 5 µM (≈ 8.67 µg/mL)
MIC [22]: 10 µM (≈ 17.3 µg/mL)
MIC [23]: 9.98 µM (≈ 17.3 µg/mL)
MIC [17]: 39.9 µM (≈ 69.2 µg/mL)
MIC [24]: 9.98 µM (≈ 17.3 µg/mL)
MIC [25]: ≥ 320 µM

CC[C@H](C)[C@@H]1NC(=O)[C@H](CCCCN)NC(=O)[C@@H](NC(=O)[C@H](CCSC)NC(=O)[C@@H](NC(=O)[C@H](CC(C)C)NC(=O)[C@@H]2CCCN2C(=O)[C@H](CC(C)C)NC(=O)[C@@H](NC(=O)[C@@H](N)Cc2ccccc2)C(C)C)C(C)C)CSSC[C@@H](C(=O)O)NC(=O)[C@H](CCCCN)NC(=O)[C@H](CCCN=C(N)N)NC(=O)[C@H](CC(C)C)NC1=O [FVLPLVMCKILRKC]
MIC [26]: 5.64 µM (≈ 9.37 µg/mL)
MIC [13]: > 60.1 µM
MIC [27]: ≥ 60.1 µM
MIC [28]: 5.64 µM (≈ 9.37 µg/mL)
MIC [29]: > 60.1 µM

CC[C@H](C)[C@H](NC(=O)[C@H](CC(=O)O)NC(=O)[C@H](CCCCN)NC(=O)[C@H](C)NC(=O)[C@H](C)NC(=O)CNC(=O)[C@H](CCCCN)NC(=O)[C@H](CC(C)C)NC(=O)[C@@H](NC(=O)[C@H](CC(=O)O)NC(=O)[C@@H](NC(=O)[C@@H](NC(=O)CN)C(C)C)C(C)C)[C@@H](C)CC)C(=O)N[C@@H](C)C(=O)NCC(=O)N[C@@H](Cc1cnc[nH]1)C(=O)N[C@@H](CC(C)C)C(=O)N[C@@H](C)C(=O)N[C@@H](CO)C(=O)N[C@@H](CCCCN)C(=O)N[C@H](C(=O)N[C@@H](CCSC)C(N)=O)C(C)C [GVVDILKGAAKDIAGHLASKVM]
MIC [13]: 114 µM (≈ 250 µg/mL)
MIC [30]: ≥ 234 µM
MIC [31]: ≥ 222 µM

CSCC[C@H](NC(=O)[C@H](C)NC(C)=O)C(=O)N[C@H](C(=O)NCC(=O)N[C@H](C(=O)O)[C@@H](C)O)C(C)C [AMVGT]
MIC [32]: 26.3 µM (≈ 13.7 µg/mL)
MIC [33]: 26.3 µM (≈ 13.7 µg/mL)
MIC [34]: ≥ 53.8 µM
MIC [35]: 26.3 µM (≈ 13.7 µg/mL)
MIC [36]: 26.3 µM (≈ 13.7 µg/mL)

CC[C@H](C)[C@H](NC(=O)[C@@H](NC(=O)[C@H](CO)NC(=O)[C@H](C)NC(=O)[C@@H](NC(=O)[C@H](CCCCN)NC(=O)[C@H](CCCCN)NC(=O)[C@@H](NC(=O)[C@@H](NC(=O)[C@@H](N)CC(=O)O)C(C)C)[C@@H](C)CC)C(C)C)C(C)C)C(=O)NCC(=O)O [DVIKKVASVIG]
MIC [37]: > 908 µM
MIC [38]: ≥ 908 µM
MIC [39]: > 908 µM
MIC [40]: ≥ 908 µM
MIC [41]: ≥ 908 µM
